Patent US9073821B2, “Hydroxamic acid derivative” (priority 2010, dated 2015)
≈ marks a conversion by molar mass, not a printed value. Where two headings read alike, the source gives them in different places.

Legend:
[1] = target: Pseudomonas aeruginosa LpxC enzyme (Pseudomonas aeruginosa (strain ATCC 15692 / DSM 22644 / CIP 104116 / JCM 14847 / LMG 12228 / 1C / PRS 101 / PAO1), UniProt P47205); assay: biochemical; format: biochemical
[2] = target: E. coli LpxC enzyme (Escherichia coli (strain K12), UniProt P0A725); assay: Inhibitory activity on E. coli LpxC enzyme (fluorescamine assay); format: biochemical; details: Table 4
Chain of E. coli LpxC enzyme (P0A725 whole entry): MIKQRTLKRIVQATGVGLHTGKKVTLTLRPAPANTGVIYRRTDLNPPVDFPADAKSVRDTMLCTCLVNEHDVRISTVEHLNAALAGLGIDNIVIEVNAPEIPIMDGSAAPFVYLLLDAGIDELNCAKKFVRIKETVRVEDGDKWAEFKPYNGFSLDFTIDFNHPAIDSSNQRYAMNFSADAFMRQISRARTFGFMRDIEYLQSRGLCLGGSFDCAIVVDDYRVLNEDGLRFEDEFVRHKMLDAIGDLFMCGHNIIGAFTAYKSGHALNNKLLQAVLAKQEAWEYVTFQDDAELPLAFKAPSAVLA
Experimental: Test 2: Evaluation of the Inhibitory Activity on E. coli LpxC Enzyme
An inhibition curve was constructed for each test compound by performing the aforementioned reaction at varying concentrations of the test compound. From this inhibition curve, the concentration of the test compound at which the formation of the reaction product was suppressed by 50% was determined as the IC50 of the test compound, which was an index for the inhibitory activity on E. coli LpxC enzyme.

[3] = system: E. coli strain ATCC25922; assay: Antimicrobial activity, MIC by broth microdilution; format: cell-based; details: Escherichia coli, Table 4, 35° C., 18 hours, read-out: E. coli ATCC 25922 strain MIC
Text: (§1) Test 3: Evaluation of Antimicrobial Activity For minimum inhibitory concentration (MIC) measurement, the following broth microdilution method was applied as adapted from the standard procedure recommended by the CLSI (Clinical and Laboratory Standards Institute). The bacteria used were Pseudomonas aeruginosa strain TS88 (clinical isolate), E. coli strain ATCC25922, and Klebsiella pneumoniae strain ATCC13883. After culture overnight on a heart infusion agar medium, the cells of a test bacterium were scraped off and suspended to give a turbidity of level 0.5 on the McFarland scale; the suspension was then diluted 10 fold to prepare an inoculum solution. A 0.005 mL aliquot of the inoculum solution was inoculated in a cation-adjusted Mueller-Hinton broth medium containing a test compound and cultured at 35° C. for 18 hours. A minimum drug concentration at which no cell growth was visible to the naked eye was designated as MIC.

[4] = system: Klebsiella pneumoniae strain ATCC13883; assay: Antimicrobial activity, MIC by broth microdilution; format: cell-based; details: Table 4, 35° C., 18 hours, read-out: Klebsiella pneumoniae ATCC 13883 strain MIC
Text: as §1

[5] = system: Pseudomonas aeruginosa strain TS88 (clinical isolate); assay: Antimicrobial activity, MIC by broth microdilution; format: cell-based; details: Table 4, 35° C., 18 hours, read-out: Pseudomonas aeruginosa TS88 strain MIC
Text: as §1

Structure (SMILES)	IC50 ([1]; Table 4, read-out: Pseudomonas aeruginosa LpxC IC50)	IC50 ([1]; inhibitory activity on Pseudomonas aeruginosa LpxC enzyme, class symbols A/B/C, read-out: Enzyme inhibitory activity)	IC50 [2]	MIC [3]	MIC [4]	MIC [5]	IC50 ([1]; class symbols A/B/C by IC50, Table 3, read-out: Enzyme inhibitory activity (inhibitory activity on Pseudomonas aeruginosa LpxC enzyme))
CNC(=O)C(C(=O)NO)N(C)C(=O)c1ccc(C#Cc2ccc(CN3CCCOCC3)cc2)cc1 (stereo not drawn) [Compound 168, N-hydroxy-N′-methyl-2-[methyl(4-{[4-(1,4-oxazepan-4-ylmethyl)phenyl]ethynyl}benzoyl)amino]propanediamide]	4.2 nM	< 10 nM	119 nM	0.5 µg/mL (≈ 1.04 µM)	2 µg/mL (≈ 4.18 µM)	0.5 µg/mL (≈ 1.04 µM)	–
CCOc1ccc(-c2ccc(C(=O)N(C)[C@@](C)(C(=O)NC)C(=O)NO)cc2)cc1 [Compound 399, (2S)-2-{[(4′-ethoxybiphenyl-4-yl)carbonyl](methyl)amino}-N-hydroxy-N′,2-dimethylpropanediamide]	–	–	13 nM	0.125 µg/mL (≈ 0.313 µM)	0.5 µg/mL (≈ 1.25 µM)	0.5 µg/mL (≈ 1.25 µM)	–
CNC(=O)[C@@](C)(C(=O)NO)N(C)C(=O)c1ccc(-c2ccc3c(ccn3C)c2)cc1 [Compound 402, (2S)-N-hydroxy-N′,2-dimethyl-2-(methyl {[4-(1-methyl-1H-indol-5-yl)phenyl]carbonyl}amino)propanediamide]	–	–	4.9 nM	0.125 µg/mL (≈ 0.306 µM)	1 µg/mL (≈ 2.45 µM)	1 µg/mL (≈ 2.45 µM)	–
CNC(=O)[C@@](C)(C(=O)NO)N(C)C(=O)c1ccc(C#Cc2ccc(CCN3CCOCC3)cc2)cc1 [Compound 410, (2S)-N-hydroxy-N′,2-dimethyl-2-(methyl {[4-({4-[2-(morpholin-4-yl)ethyl]phenyl}ethynyl)phenyl]carbonyl}amino)propanediamide]	–	–	78 nM	0.25 µg/mL (≈ 0.508 µM)	1 µg/mL (≈ 2.03 µM)	1 µg/mL (≈ 2.03 µM)	–
CNC(=O)C(C(=O)NO)N(C)C(=O)c1ccc(C#CC#CC2CC2)cc1 (stereo not drawn) [Compound 507, 2-({[4-(4-Cyclopropylbuta-1,3-diyn-1-yl)phenyl]carbonyl}(methyl)amino)-N-hydroxy-N′-methylpropanediamide]	–	–	12 nM	0.125 µg/mL (≈ 0.354 µM)	1 µg/mL (≈ 2.83 µM)	0.25 µg/mL (≈ 0.707 µM)	–
CNC(=O)[C@@](C)(C(=O)NO)N(C)C(=O)c1ccc(C#Cc2ccc(CNCCF)cc2)cc1 [Compound 554, (2S)-2-[({4-[(4-{[(2-fluoroethyl)amino]methyl}phenyl)ethynyl]phenyl}carbonyl)(methyl)amino]-N-hydroxy-N′,2-dimethylpropanediamide]	–	–	120 nM	0.5 µg/mL (≈ 1.1 µM)	1 µg/mL (≈ 2.2 µM)	0.5 µg/mL (≈ 1.1 µM)	–
CNC(=O)[C@@](C)(C(=O)NO)N(C)C(=O)c1ccc(C#Cc2ccc(CN3CC(C)(OC)C3)cc2)cc1 [Compound 558, (2S)-N-hydroxy-2-[{[4-({4-[(3-methoxy-3-methylazetidin-1-yl)methyl]phenyl}ethynyl)phenyl]carbonyl}(methyl)amino]-N′,2-dimethylpropanediamide]	–	–	235 nM	0.5 µg/mL (≈ 1.02 µM)	2 µg/mL (≈ 4.06 µM)	1 µg/mL (≈ 2.03 µM)	–
CNC(=O)[C@@](C)(C(=O)NO)N(C)C(=O)c1ccc(C#Cc2ccc(CN3CCOCC3)cc2)cc1 [Compound 561, (2S)-N-hydroxy-N′,2-dimethyl-2-{methyl[(4-{[4-(morpholin-4-ylmethyl)phenyl]ethynyl}phenyl)carbonyl]amino}propanediamide]	–	–	30 nM	0.125 µg/mL (≈ 0.261 µM)	0.5 µg/mL (≈ 1.04 µM)	0.5 µg/mL (≈ 1.04 µM)	–
CCOC1CN(Cc2ccc(C#Cc3ccc(C(=O)N(C)C(C(=O)NC)C(=O)NO)cc3)cc2F)C1 (stereo not drawn) [Compound 563, 2-[{[4-({4-[(3-ethoxyazetidin-1-yl)methyl]-3-fluorophenyl}ethynyl)phenyl]carbonyl}(methyl)amino]-N-hydroxy-N′-methylpropanediamide]	–	–	–	1 µg/mL (≈ 2.01 µM)	4 µg/mL (≈ 8.06 µM)	1 µg/mL (≈ 2.01 µM)	< 10 nM
CNC(=O)[C@@](C)(C(=O)NO)N(C)C(=O)c1ccc(C#Cc2ccc(CN3CC(OC)C3)cc2)cc1 [Compound 567, (2S)-N-hydroxy-2-[{[4-({4-[(3-methoxyazetidin-1-yl)methyl]phenyl}ethynyl)phenyl]carbonyl}(methyl)amino]-N′,2-dimethylpropanediamide]	–	–	177 nM	0.5 µg/mL (≈ 1.04 µM)	2 µg/mL (≈ 4.18 µM)	1 µg/mL (≈ 2.09 µM)	–
